Key:
SCD5 = target: T1, SCD5 (Homo sapiens, UniProt Q86SK9); assay: Growth inhibition of humanized yeast strain expressing SCD5 as sole desaturase; format: cell-based; settings: growth inhibition of humanized yeast strain expressing human SCD5
T1 construct: host or cells: S. cerevisiae ole1Δ strain (W303 pdr1Δ pdr3Δ background), plasmid pRS316 with TDH3 promoter and CYC1 terminator
T1 sequence (Q86SK9 1-330): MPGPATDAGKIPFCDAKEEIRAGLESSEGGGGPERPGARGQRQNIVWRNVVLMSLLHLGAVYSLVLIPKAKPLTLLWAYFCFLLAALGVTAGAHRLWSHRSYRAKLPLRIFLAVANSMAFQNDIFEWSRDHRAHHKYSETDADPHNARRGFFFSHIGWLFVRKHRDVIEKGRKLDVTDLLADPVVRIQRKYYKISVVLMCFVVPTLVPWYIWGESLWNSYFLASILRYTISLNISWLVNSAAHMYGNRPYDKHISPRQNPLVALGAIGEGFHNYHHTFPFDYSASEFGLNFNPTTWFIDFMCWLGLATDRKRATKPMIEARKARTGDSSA
Method in brief: (§1)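 Plasmid-complemented ole1Δ yeast, drug-pump deleted (pdr1Δ pdr3Δ), depend solely on the introduced Ole1, SCD1 or SCD5 desaturase. Compounds are added from DMSO to cells in uracil-free galactose medium, 2× density 0.02, and OD600 is read after 24 h or 40 h respectively.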

SCD1 = target: T2, SCD1 (Homo sapiens, UniProt O00767); assay: Growth inhibition of humanized yeast strain expressing SCD1 as sole desaturase; format: cell-based; settings: growth inhibition of humanized yeast strain expressing human SCD1
T2 construct: host or cells: S. cerevisiae ole1Δ strain (W303 pdr1Δ pdr3Δ background), plasmid pRS316 with TDH3 promoter and CYC1 terminator
T2 sequence (O00767 1-359): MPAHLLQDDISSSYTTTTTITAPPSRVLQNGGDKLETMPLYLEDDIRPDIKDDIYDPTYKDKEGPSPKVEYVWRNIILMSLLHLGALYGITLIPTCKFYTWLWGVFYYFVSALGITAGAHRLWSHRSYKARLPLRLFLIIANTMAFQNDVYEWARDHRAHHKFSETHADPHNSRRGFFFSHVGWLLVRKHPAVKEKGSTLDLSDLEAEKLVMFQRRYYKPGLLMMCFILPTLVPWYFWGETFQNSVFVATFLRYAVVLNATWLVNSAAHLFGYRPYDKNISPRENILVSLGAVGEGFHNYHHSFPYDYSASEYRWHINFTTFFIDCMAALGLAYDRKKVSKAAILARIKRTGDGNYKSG
Method in brief: as §1

| Structure (SMILES) | IC50 (SCD5) | IC50 (SCD1) |
| --- | --- | --- |
| C=Cc1nn(C(C)C)c2cc(-c3noc(C4CCN(C(=O)OC(C)(C)C)CC4)n3)ccc12 [Compound 653] | > 45 µM | > 45 µM |
| CC(C)n1ncc2ccc(-c3noc([C@H]4CC[C@@H](O)CC4)n3)cc21 [Compound 654] | > 45 µM | > 45 µM |
| CC(C)(C)OC(=O)N1CCC(c2nc(-c3ccc4cn(C5CCOC5)nc4c3)no2)CC1 (stereo not shown) [Compound 655] | > 45 µM | > 45 µM |
| CC(C)(C)OC(=O)N1CCC(c2nc(-c3ccc4cn(C5CN(C(=O)OC(C)(C)C)C5)nc4c3)no2)CC1 [Compound 656] | > 45 µM | > 45 µM |
| Cc1noc(N2CCN(c3nc(-c4ccc5cnn(C(C)C)c5c4)no3)CC2)n1 [Compound 657] | 9.11 µM | > 45 µM |
| CC(C)(C)OC(=O)N1CCC(c2nc(-c3cccc(C4CCOC4)c3)no2)CC1 (stereo not shown) [Compound 658] | 0.089 µM | > 45 µM |
| O=C(CC1CC1)N1CCN(c2nc(-c3ccc4cnn(C5COC5)c4c3)no2)CC1 [Compound 659] | 4.2 µM | > 45 µM |
| CC(C)n1ncc2ccc(-c3noc(C4CCN(C(=O)OC(C)(C)C)C=C4F)n3)cc21 (stereo not shown) [Compound 660] | 14.6 µM | > 45 µM |
| CC(C)(C)OC(=O)N1CCC(c2nc(-c3ccc4cnn(CC5COC5)c4c3)no2)CC1 [Compound 661] | 1.54 µM | > 45 µM |
| CC(C)(C)OC(=O)N1CCC(c2nc(-c3ccc4c(c3)N(C3COC3)C(=O)CC4)no2)CC1 [Compound 662] | > 45 µM | > 45 µM |
| CC(C)(C)OC(=O)N1CCN(c2nc(-c3ccc4cnn(C5COC5)c4c3)no2)CC1 [Compound 664] | 0.023 µM | 23.5 µM |
| Cc1nn(C)c2cc(-c3noc(C4CCN(C(=O)CN)CC4(F)F)n3)ccc12 (stereo not shown) [Compound 665] | 5.01 µM | > 45 µM |
| CC(C)n1ncc2ccc(-c3noc(C4CCN(C(=O)N5CCCC5C#N)CC4)n3)cc21 (stereo not shown) [Compound 666] | > 45 µM | > 45 µM |
| CC(C)n1ncc2ccc(-c3noc(N4C[C@@H]5CN(C(=O)OC(C)(C)C)C[C@H]5C4)n3)cc21 [Compound 667] | 0.87 µM | > 45 µM |
| CCOC(=O)N1CCN(c2nc(-c3ccc4cnn(C(C)C)c4c3)no2)CC1 [Compound 668] | 0.719 µM | > 45 µM |
| Cc1nn(C)c2cc(-c3noc(C4CCN(c5nc6ccccc6o5)CC4)n3)ccc12 [Compound 669] | > 45 µM | > 45 µM |
| CC(C)c1noc2ccc(-c3noc(C4CCN(C(=O)CC5(C)CC5)CC4)n3)cc12 [Compound 670] | 3.79 µM | > 45 µM |
| CC(C)n1ncc2ccc(N3CC4(CCN(C(=O)OC(C)(C)C)CC4)OC3=O)cc21 [Compound 671] | > 45 µM | > 45 µM |
| CC(C)(C)OC(=O)N1CCC(c2nc(-c3cccc(OC4COC4)c3)no2)CC1 [Compound 672] | 0.441 µM | > 45 µM |

| Structure (SMILES) | IC50 (SCD5) | IC50 (SCD1) |
| --- | --- | --- |
| CC(C)n1ncc2ccc(-c3noc(C4CCN(S(=O)(=O)C5CCCCC5)CC4)n3)cc21 [Compound 673] | 33.8 µM | > 45 µM |
| CC(C)(C)CC(=O)N1CCC(c2nc(-c3ccc4cn(C(=O)C5CC5)nc4c3)no2)CC1 [Compound 674] | > 45 µM | > 45 µM |
| COC1CCC(S(=O)(=O)N2CCC(c3nc(-c4ccc5cnn(C(C)C)c5c4)no3)CC2)CC1 (stereo not shown) [Compound 675] | 0.01 µM | > 45 µM |
| COC(=O)N1CCC(c2noc(-c3ccc4cnn(C5COC5)c4c3)n2)CC1 [Compound 676] | 0.013 µM | > 45 µM |
| Cc1nn(C)c2cc(-c3noc(C4CCN(C(=O)CCC(F)(F)F)CC4)n3)ccc12 [Compound 677] | > 45 µM | > 45 µM |
| CNC(=O)Cn1cc2ccc(-c3noc(C4CCN(C(=O)OC(C)(C)C)CC4)n3)cc2n1 [Compound 678] | 3.87 µM | > 45 µM |
| CC(C)n1ncc2ccc(-c3noc(C4CCN(C(=O)CNC(=O)c5ccccc5)CC4(F)F)n3)cc21 (stereo not shown) [Compound 679] | > 45 µM | > 45 µM |
| Cc1nn(C)c2cc(-c3noc(C4CCN(C(=O)CC5CNC5)CC4)n3)ccc12 [Compound 680] | > 45 µM | > 45 µM |
| CC(C)n1ncc2ccc(-c3noc(C4CCN(C(=O)CNC(=O)c5ccc(F)cc5)CC4(F)F)n3)cc21 (stereo not shown) [Compound 681] | > 45 µM | > 45 µM |
| CC(C)n1ncc2ccc(-c3nc(N4CCN(C(=O)OC5(C)CC5)CC4)no3)cc21 [Compound 682] | 0.01 µM | > 45 µM |
| CC(C)(C)OC(=O)N[C@H]1CC[C@@H](c2nc(-c3ccc4cnn(C5COC5)c4c3)no2)CC1 [Compound 683] | 10.1 µM | > 45 µM |
| CC(C)n1ncc2ccc(-c3noc(C4CCN(C(=O)N5CCC5(C)C)CC4)n3)cc21 [Compound 684] | > 45 µM | > 45 µM |
| O=C(c1ccccc1)N1CCC(c2noc(-c3ccc4cnn(C5COC5)c4c3)n2)CC1 [Compound 685] | 0.184 µM | > 45 µM |
| CC(C)n1ncc2ccc(-c3noc(C4CCN(C(=O)CN(C)C)CC4)n3)cc21 [Compound 686] | > 45 µM | > 45 µM |
| CC(C)n1ncc2ccc(-c3noc(C4CCN(C(=O)N5CCCC5(C)CO)CC4)n3)cc21 (stereo not shown) [Compound 687] | > 45 µM | > 45 µM |
| CC(C)n1ncc2ccc(-c3noc(C4CCN(C(=O)C5(C#N)CC5)CC4)n3)cc21 [Compound 688] | 1.5 µM | > 45 µM |
| CC(C)n1ncc2ccc(-c3noc(N4CCN(C(=O)OC5CC5)CC4)n3)cc21 [Compound 689] | 0.657 µM | > 45 µM |
| CC(C)(C)OC(=O)N1CCC(c2nc(-c3ccc4cnn(C5CS(=O)(=O)C5)c4c3)no2)CC1 [Compound 690] | 0.131 µM | > 45 µM |
| CC(C)n1ncc2ccc(-c3nnc(C4CCN(C(=O)CC5(C)CC5)CC4)[nH]3)cc21 [Compound 691] | > 45 µM | > 45 µM |

| Structure (SMILES) | IC50 (SCD5) | IC50 (SCD1) |
| --- | --- | --- |
| CC(C)n1ncc2ccc(-c3nc(C4CCN(C(=O)c5ncccc5Cl)CC4)no3)cc21 [Compound 692] | 0.492 µM | > 45 µM |
| CC1(CC(=O)N2CCN(c3nc(-c4ccc5cnn(C6COC6)c5c4)no3)CC2)CC1 [Compound 693] | 1.67 µM | > 45 µM |
| CC(C)(C)CC(=O)N1CCC(c2nc(-c3ccc4cnn(C(=O)C5COC5)c4c3)no2)CC1 [Compound 694] | > 45 µM | > 45 µM |
| O=C(c1ncccc1Cl)N1CCC(c2noc(-c3ccc4cnn(C5COC5)c4c3)n2)CC1 [Compound 695] | 2.39 µM | > 45 µM |
| O=C(c1ccccc1F)N1CCC(c2noc(-c3ccc4cnn(C5COC5)c4c3)n2)CC1 [Compound 696] | 0.08 µM | > 45 µM |
| O=C(c1ccccc1Cl)N1CCC(c2noc(-c3ccc4cnn(C5COC5)c4c3)n2)CC1 [Compound 697] | 0.059 µM | > 45 µM |
| O=C(c1sccc1Cl)N1CCC(c2noc(-c3ccc4cnn(C5COC5)c4c3)n2)CC1 [Compound 698] | 0.026 µM | > 45 µM |
| CC(C)n1nc(CCO)c2ccc(-c3noc(C4CCN(C(=O)OC(C)(C)C)CC4)n3)cc21 [Compound 699] | 7.65 µM | > 45 µM |
| CC(C)(C)OC(=O)N1CC(c2nc(-c3ccc4cnn(C5COC5)c4c3)no2)C1 [Compound 700] | 0.703 µM | > 45 µM |
| CC(C)(C)OC(=O)N1CCN(c2nc(-c3ccc4cn(C5COC5)nc4c3)no2)CC1 [Compound 701] | > 45 µM | > 45 µM |
| COCCc1nn(C(C)C)c2cc(-c3noc(C4CCN(C(=O)OC(C)(C)C)CC4)n3)ccc12 [Compound 702] | > 45 µM | > 45 µM |
| CC(C)n1ncc2ccc(-c3noc(C4CCN(C(=O)C5(C)CCCO5)CC4)n3)cc21 (stereo not shown) [Compound 703] | 0.121 µM | > 45 µM |
| Cc1nnc(N2CCC(c3nc(-c4ccc5cnn(C(C)C)c5c4)no3)CC2)o1 [Compound 704] | 1.68 µM | > 45 µM |
| CC(C)n1ncc2ccc(-c3noc(C4CCN(C(=O)C56CC(C5)C6)CC4)n3)cc21 [Compound 705] | 0.174 µM | 14.4 µM |
| CC(C)n1ncc2ccc(-c3noc(C4CCN(C(=O)C5CCCN5C)CC4)n3)cc21 (stereo not shown) [Compound 706] | > 45 µM | > 45 µM |
| CC(C)(C)CC(=O)N1CC(c2nc(-c3ccc4cnn(C5COC5)c4c3)no2)C1 [Compound 707] | 14.5 µM | > 45 µM |
| CC(C)(C)OC(=O)N1CC(c2nc(-c3ccc4cn(C5COC5)nc4c3)no2)C1 [Compound 708] | > 45 µM | > 45 µM |
| CC(C)(C)COC(=O)N1CC(c2nc(-c3ccc4cnn(C5COC5)c4c3)no2)C1 [Compound 709] | 4.77 µM | > 45 µM |

Reference: patent US11873298B2, “Compounds and uses thereof” (JANSSEN PHARMACEUTICA NV, priority 2017, dated 2024)
